Reference: patent publication US6391305B1, “Conjugates useful in the treatment of prostate cancer” (priority 1999, dated 2002)
Read-outs that look alike come from different tables or passages of the source. Non-standard residues stand in square brackets, D forms with d. Residues, ends and D or L forms follow the SMILES beside them. *: point of attachment. Doxorubicin(3'-N) = COc1cccc2c1C(=O)c1c(O)c3c(c(O)c1C2=O)C[C@@](O)(C(=O)CO)C[C@@H]3O[C@H]1C[C@H](N*)[C@H](O)[C@H](C)O1; X2 = COCCOCCOCCOCCOCCOCCOCCOCCOCCOCCOCCOCCOCCOCCOCCOCCOCC(=O)*; Decanoyl(3,6,9-trioxa) = COCCOCCOCC(=O)*; Glyceroyl(2R) = O=C([C@H](O)CO)*; X4 = COCCOCCOCCOCCOCCOCCOCC(=O)*; hArg = N=C(N)NCCCC[C@H](N)C(=O)O; 3Pal = N[C@@H](Cc1cccnc1)C(=O)O; Chg = N[C@H](C(=O)O)C1CCCCC1; Glycolyl = O=C(CO)*

Key:
[1] = system: LNCap prostate tumor cells; test: In vitro cytotoxicity, Alamar Blue assay, LNCaP; type: cell-based; settings: 72 HRS, read-out: LNCaP Cell Kill in 72 HRS, {48 HRS} EC 50
Experimental: (§1) The cytotoxicities of the cleaveable oligopeptide-doxorubicin conjugates, prepared as described in Examples 3-6, against a line of cells which is known to be killed by unmodified doxorubicin was assessed with an Alamar Blue assay. Specifically, cell cultures of LNCap prostate tumor cells or DuPRO cells in 96 well plates was diluted with medium containing various concentrations of a given conjugate (final plate well volume of 200 μl ). The cells were incubated for 3 days at 37° C., 20 μl of Alamar Blue is added to the assay well. The cells were further incubated and the assay plates were read on a EL-310 ELISA reader at the dual wavelengths of 570 and 600 nm at 4 and 7 hours after addition of Alamar Blue. Relative percentage viability at the various concentration of conjugate tested was then calculated versus control (no conjugate) cultures. If no salt is indicated, the free conjugate was tested.

[2] = biological target: T1, enzymatically active free PSA (Homo sapiens, UniProt P07288); test: Recognition (cleavage) of oligopeptide-doxorubicin conjugates by free PSA, HPLC; type: biochemical; settings: DOX conjugate; for Time to 50% Substrate Cleavage by York PSA: PSA digestion buffer pH7.4, 140 mM NaCl, molar ratio to PSA 100 to 1
T1 construct: required for 50% cleavage of the noted oligopeptides with enzymatically active free PSA
T1 sequence (P07288 25-261): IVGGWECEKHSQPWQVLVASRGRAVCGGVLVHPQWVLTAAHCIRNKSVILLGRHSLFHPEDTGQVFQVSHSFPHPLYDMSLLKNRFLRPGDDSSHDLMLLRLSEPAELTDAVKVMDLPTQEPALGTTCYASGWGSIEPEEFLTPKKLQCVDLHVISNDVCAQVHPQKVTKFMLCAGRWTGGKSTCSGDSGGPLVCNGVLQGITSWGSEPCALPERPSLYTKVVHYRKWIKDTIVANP
Experimental: If no salt is indicated for the conjugate, the free conjugate was tested.

[3] = system: DuPRO cells; test: In vitro cytotoxicity, Alamar Blue assay, DuPRO; type: cell-based; settings: value in parentheses beside the LNCaP value, read-out: DuPRO cell kill EC 50
Experimental: as §1

[4] = biological target: T1, enzymatically active free PSA; type: biochemical; settings: oligopeptide; PSA digestion buffer pH8.0; molar ratio to PSA 100 to 1
Experimental: All other oligopeptides were tested as neutral compounds.

Molecule: COCCOCCOCC(=O)N[C@@H](CCCCN)C(=O)N[C@@H](Cc1ccc(O)cc1)C(=O)N[C@@H](CCC(N)=O)C(=O)N[C@@H](CO)C(=O)N[C@@H](CO)C(=O)N[C@@H](CO)C(=O)N[C@@H](CC(C)C)C(=O)N[C@H]1C[C@H](O[C@H]2C[C@](O)(C(=O)CO)Cc3c(O)c4c(c(O)c32)C(=O)c2c(OC)cccc2C4=O)O[C@@H](C)[C@H]1O [PEG(2)-KYQ-SSSL-DOX (3′), PEG(2)-LysTyrGln-SerSerSerLeu-DOX (3′)] ({Decanoyl(3,6,9-trioxa)}-KYQSSSL-{Doxorubicin(3'-N)})
- EC50 [1]: 12.8 µM

Molecule: COc1cccc2c1C(=O)c1c(O)c3c(c(O)c1C2=O)C[C@@](O)(C(=O)CO)C[C@@H]3O[C@H]1C[C@H](NC(=O)[C@H](CC(C)C)NC(=O)[C@H](CO)NC(=O)[C@H](CCC(N)=O)NC(=O)[C@H](Cc2ccc(O)cc2)NC(=O)[C@H](CO)NC(=O)[C@H](CO)NC(=O)[C@H](CCCCNC(=N)N)NC(=O)CO)[C@H](O)[C@H](C)O1 [2-hydroxyacetyl-HomoRSSYQ-SL-DOX (3′), 2-hydroxyacetyl-hArgSerSerTyrGln-SerLeu-DOX (3′)] (Glycolyl-[hArg]SSYQSL-{Doxorubicin(3'-N)})
- Time to 50% Substrate Cleavage by York PSA [2]: 16 min
- EC50 [1]: 13.6 µM

Molecule: COCCOCCOCC(=O)N[C@@H](CCCCNC(=N)N)C(=O)N[C@@H](Cc1ccc(O)cc1)C(=O)N[C@@H](CCC(N)=O)C(=O)N[C@@H](CO)C(=O)N[C@@H](CO)C(=O)N[C@@H](CO)C(=O)N[C@@H](CC(C)C)C(=O)N[C@H]1C[C@H](O[C@H]2C[C@](O)(C(=O)CO)Cc3c(O)c4c(c(O)c32)C(=O)c2c(OC)cccc2C4=O)O[C@@H](C)[C@H]1O [PEG(2)-HomoRYQ-SSSL-DOX (3′), PEG(2)-hArgTyrGln-SerSerSerLeu-DOX (3′)] ({Decanoyl(3,6,9-trioxa)}-[hArg]YQSSSL-{Doxorubicin(3'-N)})
- Substrate cleavage by York PSA at 4 HOUR ([2]; 4 hours): 40%
- EC50 [1]: 14 µM

Molecule: COc1cccc2c1C(=O)c1c(O)c3c(c(O)c1C2=O)C[C@@](O)(C(=O)CO)C[C@@H]3O[C@H]1C[C@H](NC(=O)[C@H](CC(C)C)NC(=O)[C@H](CO)NC(=O)[C@H](CCC(N)=O)NC(=O)[C@@H](NC(=O)[C@H](CCCCNC(=N)N)NC(=O)[C@H](CO)NC(=O)CO)C2CCCCC2)[C@H](O)[C@H](C)O1 [2-hydroxyacetyl-SHomoRChgQ-SL-DOX (3′), 2-hydroxyacetyl-SerhArgChgGln-SerLeu-DOX (3′)] (Glycolyl-S[hArg][Chg]QSL-{Doxorubicin(3'-N)})
- EC50 [3]: > 100 µM
- EC50 [1]: 5.1 µM

Molecule: COCCOCCOCC(=O)N[C@@H](CO)C(=O)N[C@@H](CCCCNC(=N)N)C(=O)N[C@@H](Cc1ccc(O)cc1)C(=O)N[C@@H](CCC(N)=O)C(=O)N[C@@H](CO)C(=O)N[C@@H](CC(C)C)C(=O)N[C@H]1C[C@H](O[C@H]2C[C@](O)(C(=O)CO)Cc3c(O)c4c(c(O)c32)C(=O)c2c(OC)cccc2C4=O)O[C@@H](C)[C@H]1O [PEG(2)-SHomoRYQ-SL-DOX (3′), PEG(2)-SerhArgTyrGln-SerLeu-DOX (3′)] ({Decanoyl(3,6,9-trioxa)}-S[hArg]YQSL-{Doxorubicin(3'-N)})
- Time to 50% Substrate Cleavage by York PSA [2]: 60 min
- EC50 ([1]; listed as PEG(2)-ShRYQ-SL-DOX(3′)): 34 µM

Molecule: PEG(2)-SerSerSerChgGln-Ser(dLeu)-DOX (3′) ({Decanoyl(3,6,9-trioxa)}-SSS[Chg]QS[dL]-{Doxorubicin(3'-N)}; also: DOX attached at 3′) [PEG(2)-SSSChgQ-S(dL)-DOX (3′)]
- Substrate cleavage by York PSA at 3 HOUR ([2]; 3 hours): 46%

Molecule: COc1cccc2c1C(=O)c1c(O)c3c(c(O)c1C2=O)C[C@@](O)(C(=O)CO)C[C@@H]3O[C@H]1C[C@H](NC(=O)[C@H](CC(C)C)NC(=O)[C@H](CO)NC(=O)[C@H](CCC(N)=O)NC(=O)[C@@H](NC(=O)[C@H](CO)NC(=O)[C@H](CO)NC(=O)[C@H](Cc2cccnc2)NC(=O)[C@H](O)CO)C2CCCCC2)[C@H](O)[C@H](C)O1 [(d)(2,3-dihydroxypropionyl)-3PAL-SerSerChgGln-SerLeu-DOX (3′)] ({Glyceroyl(2R)}-[3Pal]SS[Chg]QSL-{Doxorubicin(3'-N)})
- Time to 50% Substrate Cleavage by York PSA [2]: 12 min
- EC50 [1]: 5.5 µM

Molecule: COc1cccc2c1C(=O)c1c(O)c3c(c(O)c1C2=O)C[C@@](O)(C(=O)CO)C[C@@H]3O[C@H]1C[C@H](NC(=O)[C@H](CC(C)C)NC(=O)[C@H](CO)NC(=O)[C@H](CCC(N)=O)NC(=O)[C@@H](NC(=O)[C@H](CO)NC(=O)[C@H](CO)NC(=O)[C@H](CCCCNC(=N)N)NC(=O)CO)C2CCCCC2)[C@H](O)[C@H](C)O1 [2-hydroxyacetyl-HomoRSSChgQ-SL-DOX (3′), 2-hydroxyacetyl-hArgSerSerChgGln-SerLeu-DOX (3′)] (Glycolyl-[hArg]SS[Chg]QSL-{Doxorubicin(3'-N)})
- EC50 [3]: > 100 µM
- EC50 [1]: 5.5 µM

Molecule: COCCOCCOCCOCCOCCOCCOCCOCCOCCOCCOCCOCCOCCOCCOCCOCCOCC(=O)N[C@@H](CO)C(=O)N[C@@H](CCCCNC(=N)N)C(=O)N[C@@H](Cc1ccc(O)cc1)C(=O)N[C@@H](CCC(N)=O)C(=O)N[C@@H](CO)C(=O)N[C@@H](CC(C)C)C(=O)N[C@H]1C[C@H](O[C@H]2C[C@](O)(C(=O)CO)Cc3c(O)c4c(c(O)c32)C(=O)c2c(OC)cccc2C4=O)O[C@@H](C)[C@H]1O [PEG(16)-SHomoRYQ-SL-DOX (3′), PEG(16)-SerhArgTyrGln-SerLeu-DOX (3′)] (X2-S[hArg]YQSL-{Doxorubicin(3'-N)})
- Time to 50% Substrate Cleavage by York PSA [2]: 65 min
- EC50 [1]: 45 µM

Molecule: COc1cccc2c1C(=O)c1c(O)c3c(c(O)c1C2=O)C[C@@](O)(C(=O)CO)C[C@@H]3O[C@H]1C[C@H](NC(=O)[C@H](CC(C)C)NC(=O)[C@H](CO)NC(=O)[C@H](CCC(N)=O)NC(=O)[C@@H](NC(=O)[C@H](CO)NC(=O)[C@H](C)NC(=O)[C@H](CCCCNC(=N)N)NC(=O)CO)C2CCCCC2)[C@H](O)[C@H](C)O1 [2-hydroxyacetyl-HomoRASChgQ-SL-DOX (3′), 2-hydroxyacetyl-hArgAlaSerChgGln-SerLeu-DOX (3′)] (Glycolyl-[hArg]AS[Chg]QSL-{Doxorubicin(3'-N)})
- EC50 [1]: 7.9 µM

Molecule: (OH-Ac)SSSChgQ-SL-acid: 2-hydroxyacetyl blocked oligopeptide with PSA cleavage site, Example 1; blocked peptide of Example 3 Step B (Glycolyl-SSS[Chg]QSL-OH)
- Time to 50% Substrate Cleavage by York PSA [4]: 120 min

Molecule: COCCOCCOCC(=O)N[C@@H](C)C(=O)N[C@@H](CO)C(=O)N[C@H](C(=O)N[C@@H](CCC(N)=O)C(=O)N[C@@H](CO)C(=O)N[C@@H](CC(C)C)C(=O)N[C@H]1C[C@H](O[C@H]2C[C@](O)(C(=O)CO)Cc3c(O)c4c(c(O)c32)C(=O)c2c(OC)cccc2C4=O)O[C@@H](C)[C@H]1O)C1CCCCC1 [PEG(2)-ASChgQ-SL-DOX (3′), PEG(2)-AlaSerChgGln-SerLeu-DOX (3′)] ({Decanoyl(3,6,9-trioxa)}-AS[Chg]QSL-{Doxorubicin(3'-N)})
- Time to 50% Substrate Cleavage by York PSA [2]: 45 min
- EC50 [1]: 5.6 µM

Molecule: (d)2,3-dihydroxypropionyl-3PAL-SSChgQSL-acid: blocked oligopeptide with PSA cleavage site, Example 1 ({(d)‑2,3‑dihydroxypropionyl}-[3Pal]SS[Chg]QSL-OH)
- Time to 50% Substrate Cleavage by York PSA [4]: 80 min

Molecule: COCCOCCOCCOCCOCCOCCOCC(=O)N[C@@H](C)C(=O)N[C@@H](CO)C(=O)N[C@H](C(=O)N[C@@H](CCC(N)=O)C(=O)N[C@@H](CO)C(=O)N[C@@H](CC(C)C)C(=O)N[C@H]1C[C@H](O[C@H]2C[C@](O)(C(=O)CO)Cc3c(O)c4c(c(O)c32)C(=O)c2c(OC)cccc2C4=O)O[C@@H](C)[C@H]1O)C1CCCCC1 [PEG(6)-ASChgQ-SL-DOX (3′), PEG(6)-AlaSerChgGln-SerLeu-DOX (3′)] (X4-AS[Chg]QSL-{Doxorubicin(3'-N)})
- Time to 50% Substrate Cleavage by York PSA [2]: 160 min
- EC50 [1]: 12 µM

Molecule: Ac-hRASChgQ-SL-acid: blocked oligopeptide with PSA cleavage site, Example 1 (Ac-[hArg]AS[Chg]QSL-OH; SMILES CC(=O)N[C@@H](CCCCNC(=N)N)C(=O)N[C@@H](C)C(=O)N[C@@H](CO)C(=O)N[C@H](C(=O)N[C@@H](CCC(N)=O)C(=O)N[C@@H](CO)C(=O)N[C@@H](CC(C)C)C(=O)O)C1CCCCC1)
- Time to 50% Substrate Cleavage by York PSA [4]: 50 min

Molecule: COc1cccc2c1C(=O)c1c(O)c3c(c(O)c1C2=O)C[C@@](O)(C(=O)CO)C[C@@H]3O[C@H]1C[C@H](NC(=O)[C@H](CC(C)C)NC(=O)[C@H](CO)NC(=O)[C@H](CO)NC(=O)[C@H](CO)NC(=O)[C@H](CCC(N)=O)NC(=O)[C@H](Cc2ccc(O)cc2)NC(=O)[C@H](CO)NC(=O)CO)[C@H](O)[C@H](C)O1 [2-hydroxyacetyl-SYQ-SSSL-DOX (3′), 2-hydroxyacetyl-SerTyrGln-SerSerSerLeu-DOX (3′)] (Glycolyl-SYQSSSL-{Doxorubicin(3'-N)})
- EC50 [1]: 18.8 µM
